# Measurements published in patent US12128132B2, “Drug delivery formulations” (MedinCell S.A., priority 2019, dated 2024).
# Experiment: Stability of risperidone stock solution
# Format: physicochemical
# Conditions: 200 μg/mL in acetonitrile/H2O (50/50 v/v), stored at +2-8° C.
# Description: Starting from this mother solution, calibration standards were prepared by dilution in the same sample solvent mixture as above. Six dilutions were performed to obtain calibration standards of 1, 5, 10, 25, 50, 100 and 200 μg/mL.
smiles,measurement,value
Cc1nc2n(c(=O)c1CCN1CCC(c3noc4cc(F)ccc34)CC1)CCCC2 [risperidone],stability of stock solution,≥ 5 months
